“And” between values parts separate entries of the source, which are not always exact repeats. Equal entries are not always repeated.
Columns and labels:
[1] = target: T1, σ-2 (Rattus norvegicus, UniProt Q5U3Y7); experiment: Sigma-2 competitive radioligand displacement binding (NIMH PDSP)
T1 sequence (Q5U3Y7 1-176): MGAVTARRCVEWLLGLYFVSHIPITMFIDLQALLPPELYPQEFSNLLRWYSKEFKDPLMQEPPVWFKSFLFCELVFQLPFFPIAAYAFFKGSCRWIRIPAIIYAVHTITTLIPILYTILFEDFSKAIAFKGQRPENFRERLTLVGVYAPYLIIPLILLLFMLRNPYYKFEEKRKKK
Method: Sigma-1 and 2 affinity experiments (Ki values) were carried out at the National Institute of Mental Health’s Psychoactive Drug Screening Program (NIMH PDSP, UNC Chapel Hill, NC). Assay details (i.e., competitive radioligand displacement conditions, etc.) are available at https://pdsp.unc.edu/pdspweb/content/PDSP%20Protocols%20II%202013-03-28.pdf (accessed on 23 August 2023). Table 2 below indicates the Ki values determined for all compounds.

[2] = Oxygen Radical Activity Capacity (ORAC) assay; conditions: for antioxidant activities (in words): ORAC; for Slopes: slope of net AUC vs concentration (2.5-50 µM), averaged, n = 3 runs, 60 min; for TEs (Trolox equivalents): slope of sample divided by slope of Trolox, ORAC after 60 min, mean ± SD, n = 3
Method: Compound antioxidant capacities were determined using the Oxygen Radical Activity Capacity (ORAC) Assay Kit (catalog #ab233473, Abcam, Cambridge, MA, USA) according to the manufacturer’s protocol. Briefly, the Trolox standard (0.2 mM, 50:50 v/v, water: acetone) and each test compound (0.2 mM, 50:50 v/v, water: acetone) were tested at final concentrations ranging from 2.5 µM to 50 µM in the assay. Fluorescein (150 μL) probe solution and 25 μL of Trolox or each test compound were mixed in each well of a black 96-well microplate and incubated at 37 °C for 30 min. […] Trolox equivalents (TE) for the test compounds were obtained by directly dividing the slopes of each sample by the slope of the Trolox from its standard curve (Table 4). […] Curiously, unlike the phenolic Trolox derivatives (i.e., 3, 4, 8, 12, and 20), compound 18′s antioxidant activity can be attributed to the -NH-OH moiety.

[3] = target: T2, HDAC-6 (Homo sapiens, UniProt Q9UBN7); experiment: HDAC fluorescence activity assay (Reaction Biology, Howitz conditions); conditions: HDAC-6 IC50, fluorogenic acetylated lysine substrate, 10-dose IC50 mode, threefold serial dilutions
T2 sequence (Q9UBN7 1-1215): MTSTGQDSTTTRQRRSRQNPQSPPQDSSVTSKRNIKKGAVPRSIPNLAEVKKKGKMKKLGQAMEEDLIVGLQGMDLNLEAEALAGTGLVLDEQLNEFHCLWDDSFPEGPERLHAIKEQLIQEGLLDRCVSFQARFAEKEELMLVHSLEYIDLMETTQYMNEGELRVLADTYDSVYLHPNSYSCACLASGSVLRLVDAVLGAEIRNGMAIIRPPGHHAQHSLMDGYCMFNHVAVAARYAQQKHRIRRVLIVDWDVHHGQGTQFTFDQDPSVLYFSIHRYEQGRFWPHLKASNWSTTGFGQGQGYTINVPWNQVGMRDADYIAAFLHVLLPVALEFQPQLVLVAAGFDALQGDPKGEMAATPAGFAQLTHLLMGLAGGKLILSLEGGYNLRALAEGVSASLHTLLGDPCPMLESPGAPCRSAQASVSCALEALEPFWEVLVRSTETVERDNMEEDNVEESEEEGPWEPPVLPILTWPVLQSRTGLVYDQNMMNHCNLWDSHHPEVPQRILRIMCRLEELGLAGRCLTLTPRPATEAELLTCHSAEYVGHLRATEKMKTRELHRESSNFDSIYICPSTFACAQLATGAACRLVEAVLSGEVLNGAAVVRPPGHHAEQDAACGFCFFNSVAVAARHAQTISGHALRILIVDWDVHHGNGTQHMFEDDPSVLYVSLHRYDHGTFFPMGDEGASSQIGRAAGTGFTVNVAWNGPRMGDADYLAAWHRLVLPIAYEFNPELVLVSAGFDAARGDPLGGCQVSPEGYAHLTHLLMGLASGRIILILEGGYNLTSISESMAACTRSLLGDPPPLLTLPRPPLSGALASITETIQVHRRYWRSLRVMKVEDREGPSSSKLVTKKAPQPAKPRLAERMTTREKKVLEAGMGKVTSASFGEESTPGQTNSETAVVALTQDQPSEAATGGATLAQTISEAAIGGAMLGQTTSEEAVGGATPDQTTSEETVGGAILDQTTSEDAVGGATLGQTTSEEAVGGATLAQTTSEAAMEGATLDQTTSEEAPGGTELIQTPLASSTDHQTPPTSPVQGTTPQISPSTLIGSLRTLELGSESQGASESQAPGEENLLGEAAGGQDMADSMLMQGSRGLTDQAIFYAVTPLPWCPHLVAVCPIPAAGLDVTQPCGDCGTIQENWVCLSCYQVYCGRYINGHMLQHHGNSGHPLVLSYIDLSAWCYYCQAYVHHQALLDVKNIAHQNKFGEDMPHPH

Compound | Ki [1] [µM] | IC50 [3] | antioxidant activities (in words) [2] | Slopes [2] | TEs (Trolox equivalents) [2]
COC(=O)c1ccc(CNC(=O)Cc2ccccc2)cc1 [Compound 1, Methyl 4-((2-phenylacetamido)methyl) benzoate] | > 10 | – | – | – | –
COC(=O)c1ccc(CNC(=O)C2(C)CCc3c(C)c(O)c(C)c(C)c3O2)cc1 (stereo not shown) [Compound 2, Methyl 4-((6-hydroxy-2,5,7,8-tetramethylchromane-2-carboxamido)methyl)benzoate] | 7.47 | – | – | – | –
Cc1c(C)c2c(c(C)c1O)CCC(C)(C(=O)Nc1nc3ccccc3o1)O2 (stereo not shown) [Compound 3, N-(Benzo[d]oxazol-2-yl)-6-hydroxy-2,5,7,8-tetramethylchromane-2-carboxamide] | > 10 | – | potent | 205.61 ± 4.38 | 1.70 ± 0.04 TE
Cc1c(C)c2c(c(C)c1O)CCC(C)(C(=O)NCc1ccc(S(N)(=O)=O)cc1)O2 (stereo not shown) [Compound 4, 6-Hydroxy-2,5,7,8-tetramethyl-N-(4-sulfamoylbenzyl) chromane-2-carboxamide] | > 10 | – | potent | 155.07 ± 2.39 | 1.28 ± 0.02 TE
NNC(=O)c1ccc(CNC(=O)Cc2ccccc2)cc1 [Compound 5, N-(4-(Hydrazinecarbonyl)benzyl)-2-phenylacetamide] | > 10 | – | – | – | –
Cc1c(C)c2c(c(C)c1O)CCC(C)(C(=O)Nc1nc3ccccc3[nH]1)O2 (stereo not shown) [Compound 6, N-(1H-benzo[d]imidazol-2-yl)-6-hydroxy-2,5,7,8-tetramethylchromane-2-carboxamide] | 7.49 | – | – | – | –
Cc1c(C)c2c(c(C)c1O)CCC(C)(C(=O)Nc1cc3ccccc3cn1)O2 (stereo not shown) [Compound 7, 6-Hydroxy-N-(isoquinolin-3-yl)-2,5,7,8-tetramethylchromane-2-carboxamide] | 1.5 | – | – | – | –
Cc1c(C)c2c(c(C)c1O)CCC(C)(C(=O)NNC(=O)c1ccc(Cl)cc1)O2 (stereo not shown) [Compound 20, N′-(4-Chlorobenzoyl)-6-hydroxy-2,5,7,8-tetramethylchromane-2-carbohydrazide] | – | – | potent | 177.86 ± 3.38 | 1.47 ± 0.03 TE
Cc1c(C)c2c(c(C)c1O)CCC(C)(C(=O)O)O2 (stereo not shown) [Trolox, 6-hydroxy-2,5,7,8-tetramethylchroman-2-carboxylic acid] | – | – | – | – | 1.0 TE

Second part, led by results:

Ki [1] [µM] | IC50 [3] | Compound | antioxidant activities (in words) [2] | Slopes [2] | TEs (Trolox equivalents) [2]
> 10 | 0.017 µM and 0.0173 µM | Cc1c(C)c2c(c(C)c1O)CCC(C)(C(=O)NCc1ccc(C(=O)NO)cc1)O2 (stereo not shown) [Compound 8, 6-Hydroxy-N-(4-(hydroxycarbamoyl)benzyl)-2,5,7,8-tetramethylchromane-2-carboxamide] | potent | 232.42 ± 8.98 | 1.92 TE and 1.92 ± 0.07 TE
> 10 | – | Cc1c(C)c2c(c(C)c1O)CCC(C)(C(=O)NCc1ccc(C(=O)NN)cc1)O2 (stereo not shown) [Compound 9, N-(4-(Hydrazinecarbonyl)benzyl)-6-hydroxy-2,5,7,8-tetramethylchromane-2-carboxamide] | – | – | –
5.59 | – | Cc1c(C)c2c(c(C)c1O)CCC(C)(C(=O)Nc1cnccn1)O2 (stereo not shown) [Compound 10, 6-Hydroxy-2,5,7,8-tetramethyl-N-(pyrazin-2-yl) chromane-2-carboxamide] | – | – | –
> 10 | – | Cc1nc(NC(=O)C2(C)CCc3c(C)c(O)c(C)c(C)c3O2)sc1C (stereo not shown) [Compound 11, N-(4,5-Dimethylthiazol-2-yl)-6-hydroxy-2,5,7,8-tetramethylchromane-2-carboxamide] | – | – | –
> 10 | – | Cc1c(C)c2c(c(C)c1O)CCC(C)(C(=O)Nc1ncc[nH]1)O2 (stereo not shown) [Compound 12, 6-Hydroxy-N-(1H-imidazol-2-yl)-2,5,7,8-tetramethylchromane-2-carboxamide] | potent | 151.24 ± 0.30 | 1.25 ± 0.002 TE
6.86 | – | Cc1cc(NC(=O)C2(C)CCc3c(C)c(O)c(C)c(C)c3O2)no1 (stereo not shown) [Compound 13, 6-Hydroxy-2,5,7,8-tetramethyl-N-(5-methylisoxazol-3-yl)chromane-2-carboxamide] | – | – | –
2.49 | – | Cc1c(C)c2c(c(C)c1O)CCC(C)(C(=O)N1CCN(c3ncccn3)CC1)O2 (stereo not shown) [Compound 14, (6-Hydroxy-2,5,7,8-tetramethylchroman-2-yl)(4-(pyrimidin-2-yl)piperazin-1-yl)methanone] | – | – | –
6.98 | – | Cc1c(C)c2c(c(C)c1O)CCC(C)(C(=O)NCc1ccc3c(c1)OCO3)O2 (stereo not shown) [Compound 15, N-(Benzo[d][1,3]dioxol-5-ylmethyl)-6-hydroxy-2,5,7,8-tetramethylchromane-2-carboxamide] | – | – | –
> 10 | – | NS(=O)(=O)c1ccc(CNC(=O)Cc2ccccc2)cc1 [Compound 16, 2-Phenyl-N-(4-sulfamoylbenzyl) acetamide] | – | – | –
– | 0.077 µM and 0.0779 µM | O=C(Cc1ccccc1)NCc1ccc(C(=O)NO)cc1 [Compound 18, N-Hydroxy-4-((2-phenylacetamido)methyl)benzamide] | potent | 137.45 ± 1.88 | 1.13 ± 0.02 TE
